Experiments:
Assay in all cases: relative viability (nuclei count vs DMSO), 5 days (fraction); higher = more cells survive
KIN001-266 + Linsitinib = compound: CCN1CCC(CC1)N2C=C(N=N2)CNC3=CC4=C(C(=CN=C4C(=C3)Cl)C#N)NC5=CC(=C(C=C5)F)Cl [KIN001-266] + C[C@]1(O)C[C@@H](c2nc(-c3ccc4ccc(-c5ccccc5)nc4c3)c3c(N)nccn32)C1 [Linsitinib] (partner 1 µM)
Method in brief: (§1)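 Dosing by pin tool came one day after lung cancer cell lines were seeded in 1536-well plates, using either one drug or a fixed anchor-drug dose plus five library-drug doses (not always all listed) in √10 steps. After 5 days, nuclei were counted on 4× images. Relative viability is treated-well nuclei count divided by vehicle-well nuclei count, and values are medians of duplicate plates.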

KIN001-266 + OSI-027 = compound: CCN1CCC(CC1)N2C=C(N=N2)CNC3=CC4=C(C(=CN=C4C(=C3)Cl)C#N)NC5=CC(=C(C=C5)F)Cl [KIN001-266] + COc1cccc2cc(-c3nc([C@H]4CC[C@H](C(=O)O)CC4)n4ncnc(N)c34)[nH]c12 [OSI-027] (partner 0.5 µM)
Method in brief: as §1

KIN001-266 + Trametinib = compound: CCN1CCC(CC1)N2C=C(N=N2)CNC3=CC4=C(C(=CN=C4C(=C3)Cl)C#N)NC5=CC(=C(C=C5)F)Cl [KIN001-266] + CC(=O)Nc1cccc(-n2c(=O)n(C3CC3)c(=O)c3c(Nc4ccc(I)cc4F)n(C)c(=O)c(C)c32)c1 [Trametinib] (partner 0.02 µM)
Method in brief: as §1

KIN001-266 + Lapatinib = compound: CCN1CCC(CC1)N2C=C(N=N2)CNC3=CC4=C(C(=CN=C4C(=C3)Cl)C#N)NC5=CC(=C(C=C5)F)Cl [KIN001-266] + CS(=O)(=O)CCNCc1ccc(-c2ccc3ncnc(Nc4ccc(OCc5cccc(F)c5)c(Cl)c4)c3c2)o1 [Lapatinib] (partner 2 µM)
Method in brief: as §1

| Cell Line | relative viability (KIN001-266 + Linsitinib; first compound 0.08 µM) | relative viability (KIN001-266 + Linsitinib; first compound 0.253 µM) | relative viability (KIN001-266 + Linsitinib; first compound 0.8 µM) | relative viability (KIN001-266 + Linsitinib; first compound 2.53 µM) | relative viability (KIN001-266 + Linsitinib; first compound 8 µM) | relative viability (KIN001-266 + OSI-027; first compound 0.08 µM) | relative viability (KIN001-266 + OSI-027; first compound 0.253 µM) | relative viability (KIN001-266 + OSI-027; first compound 0.8 µM) | relative viability (KIN001-266 + OSI-027; first compound 2.53 µM) | relative viability (KIN001-266 + OSI-027; first compound 8 µM) | relative viability (KIN001-266 + Trametinib; first compound 0.08 µM) | relative viability (KIN001-266 + Trametinib; first compound 0.253 µM) | relative viability (KIN001-266 + Trametinib; first compound 0.8 µM) | relative viability (KIN001-266 + Trametinib; first compound 2.53 µM) | relative viability (KIN001-266 + Trametinib; first compound 8 µM) | relative viability (KIN001-266 + Lapatinib; first compound 0.08 µM) | relative viability (KIN001-266 + Lapatinib; first compound 0.253 µM) | relative viability (KIN001-266 + Lapatinib; first compound 0.8 µM) | relative viability (KIN001-266 + Lapatinib; first compound 2.53 µM) | relative viability (KIN001-266 + Lapatinib; first compound 8 µM) |
| --- | --- | --- | --- | --- | --- | --- | --- | --- | --- | --- | --- | --- | --- | --- | --- | --- | --- | --- | --- | --- |
| 201T | 1.08 | 1.04 | 0.984 | 1.01 | 1.15 | 0.786 | 0.53 | 0.8 | 0.776 | 0.735 | 0.74 | 0.724 | 0.686 | 0.708 | 0.754 | 1.05 | 0.981 | 0.992 | 1.07 | 1.05 |
| A549 | 0.604 | 0.55 | 0.562 | 0.668 | 0.592 |  |  |  |  |  |  |  |  |  |  | 1.03 | 0.991 | 1.05 | 0.924 | 0.84 |
| A-427 | 1.12 | 1.2 | 1.09 | 1.06 | 1.13 | 0.492 | 0.478 | 0.499 | 0.475 | 0.48 | 0.823 | 0.73 | 0.711 | 0.618 | 0.658 | 1.07 | 1.08 | 1.04 | 0.921 | 1.01 |
| ABC-1 | 1.1 | 0.788 | 0.945 | 0.76 | 0.713 | 0.649 | 0.436 | 0.622 | 0.392 | 0.375 |  |  |  |  |  | 1.18 | 1.08 | 1.12 | 1.14 | 1.1 |
| BEN | 0.892 | 0.919 | 0.914 | 1.04 | 0.978 | 0.296 | 0.335 | 0.305 | 0.274 | 0.283 | 1.01 | 1.01 | 1.07 | 1.03 | 1.15 | 0.779 | 0.764 | 0.77 | 0.835 | 0.953 |
| CAL-12T | 0.802 | 0.811 | 0.774 | 0.863 | 0.493 | 0.696 | 0.742 | 0.538 | 0.508 | 0.509 | 0.357 | 0.442 | 0.351 | 0.293 | 0.37 | 0.826 | 0.706 |  | 0.679 | 0.626 |
| COR-L23 | 0.958 | 0.918 | 0.928 | 0.88 | 0.601 | 0.851 | 0.788 | 0.895 | 0.657 | 0.582 | 0.634 | 0.667 | 0.651 | 0.512 | 0.486 | 0.797 | 0.894 | 0.998 | 0.904 | 0.983 |
| COR-L 105 | 0.974 | 0.932 | 0.991 | 0.93 | 0.846 | 0.683 | 0.822 | 0.66 | 0.645 | 0.576 | 0.42 | 0.517 | 0.417 | 0.43 | 0.455 | 0.349 | 0.393 | 0.34 | 0.417 | 0.381 |
| Calu-6 | 1.03 | 0.978 | 0.955 | 0.943 | 0.836 |  |  |  |  |  |  |  |  |  |  | 1.09 | 1.05 | 1.02 | 1 | 0.899 |
